Data published in patent US9987276B2 (Celgene CAR LLC, priority 2008, dated 2018).
Where two headings read alike, the source gives them in different places.

Tests used:
[1] = biological target: ITK (Homo sapiens (Human), UniProt Q08881); test: Omnia assay for potency assessment against active forms of ITK kinase; format: biochemical; settings: [ITK]=10 nM, [ATP]=25, [Y6-Sox]=10 μM; read-out: ITK Inhibition
Procedure: [ITK]=10 nM, [ATP]=25 [Y6-Sox]=10 μM (ATP KMapp=33 μM).

[2] = biological target: BTK (Homo sapiens (Human), UniProt Q06187); test: Omnia assay for potency assessment against BTK; format: biochemical; settings: [BTK]=5 nM, Omnia assay; read-out: BTK Inhibition (IC50)
Procedure: The modified BTK-optimized reagent conditions for the above protocol are:
[BTK]=5 nM, [ATP]=[…], [Y5-Sox]=[…] (ATP KMapp˜[…]).

[3] = biological target: EGFR-WT (Homo sapiens (Human), UniProt P00533); test: Omnia assay for potency assessment against EGFR (WT)
[4] = read-out: EGFR (wild type inhibition), EGFR wild type

Sequence of ITK (Q08881 whole entry): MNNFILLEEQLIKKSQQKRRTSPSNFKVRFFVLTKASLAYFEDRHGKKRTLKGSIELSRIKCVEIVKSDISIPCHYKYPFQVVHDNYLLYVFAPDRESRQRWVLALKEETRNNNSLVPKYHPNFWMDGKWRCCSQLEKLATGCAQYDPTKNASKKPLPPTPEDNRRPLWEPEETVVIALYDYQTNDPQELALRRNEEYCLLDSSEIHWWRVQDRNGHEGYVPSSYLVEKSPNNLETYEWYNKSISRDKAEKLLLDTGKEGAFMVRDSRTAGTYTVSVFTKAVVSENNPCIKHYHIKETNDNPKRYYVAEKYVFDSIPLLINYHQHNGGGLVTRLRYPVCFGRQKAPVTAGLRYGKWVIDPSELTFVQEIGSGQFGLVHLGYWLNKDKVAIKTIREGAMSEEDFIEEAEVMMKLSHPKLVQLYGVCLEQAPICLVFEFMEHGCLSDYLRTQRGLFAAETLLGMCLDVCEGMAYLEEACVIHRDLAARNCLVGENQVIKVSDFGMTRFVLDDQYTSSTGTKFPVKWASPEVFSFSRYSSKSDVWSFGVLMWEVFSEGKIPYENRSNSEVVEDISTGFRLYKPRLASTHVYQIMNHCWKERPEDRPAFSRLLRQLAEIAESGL
Sequence of EGFR-WT (P00533 668-1210): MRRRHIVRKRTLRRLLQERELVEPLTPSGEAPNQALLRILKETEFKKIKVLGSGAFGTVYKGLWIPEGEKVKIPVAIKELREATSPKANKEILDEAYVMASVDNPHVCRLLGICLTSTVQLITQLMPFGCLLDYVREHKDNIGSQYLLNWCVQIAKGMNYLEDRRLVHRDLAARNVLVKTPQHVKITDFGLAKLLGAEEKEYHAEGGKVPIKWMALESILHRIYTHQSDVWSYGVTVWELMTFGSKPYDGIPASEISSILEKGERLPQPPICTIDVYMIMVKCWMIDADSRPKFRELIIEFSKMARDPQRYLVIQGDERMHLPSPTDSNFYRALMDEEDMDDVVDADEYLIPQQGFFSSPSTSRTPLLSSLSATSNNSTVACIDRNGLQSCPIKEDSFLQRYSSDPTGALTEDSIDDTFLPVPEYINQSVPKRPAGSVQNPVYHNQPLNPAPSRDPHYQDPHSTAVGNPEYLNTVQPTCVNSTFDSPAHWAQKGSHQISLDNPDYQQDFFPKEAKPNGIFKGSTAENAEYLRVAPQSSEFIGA
Sequence of BTK (Q06187 whole entry): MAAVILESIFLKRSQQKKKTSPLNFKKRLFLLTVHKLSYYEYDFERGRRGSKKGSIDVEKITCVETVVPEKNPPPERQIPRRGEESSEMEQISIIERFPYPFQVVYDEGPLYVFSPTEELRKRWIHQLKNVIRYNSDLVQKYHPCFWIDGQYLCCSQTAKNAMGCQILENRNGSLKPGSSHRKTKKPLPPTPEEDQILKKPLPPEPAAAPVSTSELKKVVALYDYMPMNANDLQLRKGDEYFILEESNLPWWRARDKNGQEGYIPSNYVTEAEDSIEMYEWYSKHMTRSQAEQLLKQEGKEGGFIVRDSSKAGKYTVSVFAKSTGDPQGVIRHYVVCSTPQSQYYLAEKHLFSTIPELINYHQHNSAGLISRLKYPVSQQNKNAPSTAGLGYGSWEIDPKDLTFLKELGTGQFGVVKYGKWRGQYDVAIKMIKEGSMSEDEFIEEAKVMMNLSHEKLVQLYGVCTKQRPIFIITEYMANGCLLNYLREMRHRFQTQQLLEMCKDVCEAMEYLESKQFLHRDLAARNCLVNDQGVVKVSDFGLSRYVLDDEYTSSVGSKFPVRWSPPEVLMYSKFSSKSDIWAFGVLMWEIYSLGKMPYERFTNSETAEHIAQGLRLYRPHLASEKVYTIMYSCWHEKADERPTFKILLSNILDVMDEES

Molecule	IC50 [1]	IC50 [2]	IC50 [3]	IC50 [3, 4]
C=CC(=O)Nc1cccc(Nc2nc(Nc3ccc(OCC(C)(C)O)cc3)ncc2F)c1 [Compound I-73, N-(3-(5-fluoro-2-(4-(2-hydroxy-2-methylpropoxy)phenylamino)pyrimidin-4-ylamino)phenyl)acrylamide]	< 10 nM	< 10 nM	–	–
C=C(C)C(=O)c1ccc(Nc2nc(Nc3ccc(OCCOC)c(F)c3)ncc2F)cc1 [Compound I-324, 1-(4-(5-fluoro-2-(3-fluoro-4-(2-methoxyethoxy)phenylamino)pyrimidin-4-ylamino)phenyl)-2-methylprop-2-en-1-one]	< 10 nM	< 10 nM	10 to 100 nM	–
C=CC(=O)Nc1cccc(Nc2nc(Nc3ccc(OCCN4CCCC4=O)nc3)ncc2F)c1 [Compound I-70, N-(3-(5-fluoro-2-(6-(2-(2-oxopyrrolidin-1-yl)ethoxy)pyridin-3-ylamino)pyrimidin-4-ylamino)phenyl)acrylamide]	< 10 nM	< 10 nM	10 to 100 nM	–
C=CC(=O)Nc1cccc(Nc2nc(Nc3ccc(O[C@@H]4CCOC4)nc3)ncc2F)c1 [Compound I-69, (R)—N-(3-(5-fluoro-2-(6-(tetrahydrofuran-3-yloxy)pyridin-3-ylamino)pyrimidin-4-ylamino)phenyl)acrylamide]	10 to 100 nM	< 10 nM	10 to 100 nM	–
C=C(C)C(=O)c1cccc(Nc2nc(Nc3cccc(OC(F)(F)F)c3)ncc2F)c1 [Compound I-199, 1-(3-(5-fluoro-2-(3-(trifluoromethoxy)phenylamino)pyrimidin-4-ylamino)phenyl)-2-methylprop-2-en-1-one]	10 to 100 nM	< 10 nM	10 to 100 nM	–
C=CC(=O)Nc1cccc(Nc2nc(Nc3cccc(OCCCNC(=O)CCCC(=O)NCCCOCCOCCOCCCNC(=O)CCCC[C@H]4SC[C@H]5NC(=O)N[C@H]54)c3)ncc2C)c1 [Compound I-215, N^1-(3-(3-(4-(3-acrylamidophenylamino)-5-methylpyrimidin-2-ylamino)phenoxy)propyl)-N^5-(15-oxo-19-((3aR,4R,6aS)-2-oxohexahydro-1H-thieno[3,4-d]imidazol-4-yl)-4,7,10-trioxa-14-azanonadecyl)glutaramide]	10 to 100 nM	< 10 nM	10 to 100 nM	–
C=CC(=O)Nc1cccc(Nc2nc(Nc3ccc4c(cnn4C)c3)ncc2F)c1 [Compound I-155]	< 10 nM	< 10 nM	–	< 10 nM
C=CC(=O)Nc1cccc(Nc2nc(Nc3ccc(Cl)c(OC(C)CO)c3)ncc2F)c1 (centres unmarked) [Compound I-337, N-(3-(2-(4-chloro-3-(1-hydroxypropan-2-yloxy)phenylamino)-5-fluoropyrimidin-4-ylamino)phenyl)acrylamide]	10 to 100 nM	< 10 nM	10 to 100 nM	–
C=CC(=O)N(C)Cc1ccc(Oc2nc(Nc3cccc(OCCN4CCCC4=O)c3)ncc2F)cc1 [Compound I-146, N-(4-(5-fluoro-2-(3-(2-(2-oxopyrrolidin-1-yl)ethoxy)phenylamino)pyrimidin-4-yloxy)benzyl)-N-methylacrylamide]	10 to 100 nM	< 10 nM	–	–
COCCOc1ccc(Nc2ncc(F)c(Nc3cccc(NC(=O)/C=C/CN4CC[C@@H](O)C4)c3)n2)cc1 [Compound I-89, (R,E)-N-(3-(5-fluoro-2-(4-(2-methoxyethoxy)phenylamino)pyrimidin-4-ylamino)phenyl)-4-(3-hydroxypyrrolidin-1-yl)but-2-enamide]	10 to 100 nM	< 10 nM	10 to 100 nM	–
C=CC(=O)Nc1cccc(Nc2nc(Nc3ccc(Cl)c(OC(C)(C)CO)c3)ncc2F)c1 [Compound I-336, N-(3-(2-(4-chloro-3-(1-hydroxy-2-methylpropan-2-yloxy)phenylamino)-5-fluoropyrimidin-4-ylamino)phenyl)acrylamide]	100 to 1000 nM	< 10 nM	100 to 1000 nM	–
C=CC(=O)Nc1cccc(Nc2nc(Nc3ccc(N4CCS(=O)(=O)CC4)nc3)ncc2F)c1 [Compound I-72, N-(3-(5-fluoro-2-(6-(1,1-dioxidothiomorpholin-4-yl)pyridin-3-ylamino)pyrimidin-4-ylamino)phenyl)acrylamide]	< 10 nM	< 10 nM	–	< 10 nM
C=CC(=O)N1CCc2ccc(Nc3nc(Nc4ccc(OCCOC)cc4)ncc3F)cc21 [Compound I-94, 1-(6-(5-fluoro-2-(4-(2-methoxyethoxy)phenylamino)pyrimidin-4-ylamino)indolin-1-yl)prop-2-en-1-one]	10 to 100 nM	< 10 nM	100 to 1000 nM	–
C=CC(=O)Nc1cccc(Nc2nc(Nc3cccc(OC(C)(C)CO)c3)ncc2F)c1 [Compound I-91, N-(3-(5-fluoro-2-(3-(1-hydroxy-2-methylpropan-2-yloxy)phenylamino)pyrimidin-4-ylamino)phenyl)acrylamide]	10 to 100 nM	< 10 nM	10 to 100 nM	–
C=CC(=O)Nc1cccc(Nc2nc(Nc3cccc(OCCCNC(=O)CCCC[C@@H]4SC[C@@H]5NC(=O)N[C@@H]54)c3)ncc2C)c1 [Compound I-237, N-(3-(3-(4-(3-acrylamidophenylamino)-5-methylpyrimidin-2-ylamino)phenoxy)propyl)-5-((3aS,4S,6aR)-2-oxohexahydro-1H-thieno[3,4-d]imidazol-4-yl)pentanamide]	< 10 nM	< 10 nM	10 to 100 nM	–
COCCOc1ccc(Nc2ncc(F)c(Nc3cccc(NC(=O)/C=C/CN4CC[C@H](O)C4)c3)n2)cc1 [Compound I-88, (S,E)-N-(3-(5-fluoro-2-(4-(2-methoxyethoxy)phenylamino)pyrimidin-4-ylamino)phenyl)-4-(3-hydroxypyrrolidin-1-yl)but-2-enamide]	10 to 100 nM	< 10 nM	10 to 100 nM	–
C=CC(=O)Nc1cccc(Oc2nc(Nc3cccc(OC)c3)ncc2C(=O)Nc2ccccc2)c1 [Compound I-200, 4-(3-acrylamidophenoxy)-2-(3-methoxyphenylamino)-pyrimidine-5-carboxylic acid phenylamide]	> 10000 nM	< 10 nM	–	< 10 nM
C=CC(=O)Nc1cccc(Nc2nc(Nc3ccc(OC(C)CO)c(F)c3)ncc2F)c1 (centres unmarked) [Compound I-333, N-(3-(5-fluoro-2-(3-fluoro-4-(1-hydroxypropan-2-yloxy)phenylamino)pyrimidin-4-ylamino)phenyl)acrylamide]	10 to 100 nM	< 10 nM	10 to 100 nM	–
C=CC(=O)Nc1cccc(Nc2nc(Nc3cccc(OCCCNC(=O)OC(C)(C)C)c3)ncc2F)c1 [Compound I-183, tert-butyl 3-(3-(4-(3-acrylamidophenylamino)-5-fluoropyrimidin-2-ylamino)phenoxy)propylcarbamate]	100 to 1000 nM	< 10 nM	–	1000 to 10000 nM
C=CC(=O)Nc1cccc(Nc2nc(Nc3cccc(OCC4CCCN(C)C4)c3)ncc2F)c1 (centres unmarked) [Compound I-76, N-(3-(5-fluoro-2-(3-((1-methylpiperidin-3-yl)methoxy)phenylamino)pyrimidin-4-ylamino)phenyl)-acrylamide]	< 10 nM	< 10 nM	–	< 10 nM
C=CC(=O)Nc1cccc(Nc2nc(Nc3ccc(OC[C@@H]4C[C@@H](O)CN4)c(F)c3)ncc2F)c1 [Compound I-355]	10 to 100 nM	< 10 nM	10 to 100 nM	–
C=CC(=O)Nc1cccc(Nc2nc(Nc3ccc(Cl)c(O[C@@H](C)CO)c3)ncc2F)c1 [Compound I-357, (S)—N-(3-(2-(4-chloro-3-(1-hydroxypropan-2-yloxy)phenylamino)-5-fluoropyrimidin-4-ylamino)phenyl)acrylamide]	10 to 100 nM	< 10 nM	100 to 1000 nM	–
C=CC(=O)Nc1cccc(Nc2nc(Nc3ccc(O[C@H]4CCOC4)nc3)ncc2F)c1 [Compound I-54]	10 to 100 nM	< 10 nM	10 to 100 nM	–
C=CC(=O)Nc1cccc(Nc2nc(Nc3ccc(OCCOCCNC(=O)OC(C)(C)C)c(F)c3)ncc2F)c1 [Compound I-356, tert-butyl 2-(2-(4-(4-(3-acrylamidophenylamino)-5-fluoropyrimidin-2-ylamino)-2-fluorophenoxy)ethoxy)ethylcarbamate]	10 to 100 nM	< 10 nM	100 to 1000 nM	–
N^1-(2-(2-(4-(4-(3-acrylamidophenylamino)-5-fluoropyrimidin-2-ylamino)-2-fluorophenoxy)ethoxy)ethyl)-N^5-(15-oxo-18-((3aR,4R,6aS)-2-oxohexahydro-1H-thieno[3,4-d]imidazol-4-yl)-4,7,10-trioxa-14-azaoctadecyl)glutaramide [Compound I-362]	10 to 100 nM	< 10 nM	–	–
C=C(C)C(=O)c1cccc(Nc2nc(Nc3ccc(OCCOC)c(F)c3)ncc2F)c1 [Compound I-322, 1-(3-(5-fluoro-2-(3-fluoro-4-(2-methoxyethoxy)phenylamino)pyrimidin-4-ylamino)phenyl)-2-methylprop-2-en-1-one]	< 10 nM	< 10 nM	10 to 100 nM	–
C=CC(=O)Nc1cccc(Nc2nc(Nc3ccc(Cl)c(OCC(O)CO)c3)ncc2F)c1 (centres unmarked) [Compound I-353, N-(3-(2-(4-chloro-3-(2,3-dihydroxypropoxy)phenylamino)-5-fluoropyrimidin-4-ylamino)phenyl)acrylamide]	10 to 100 nM	< 10 nM	10 to 100 nM	–
C=CC(=O)Nc1cccc(Nc2nc(Nc3cccc(OCCCn4ccnc4)c3)ncc2F)c1 [Compound I-204, N-(3-(2-(3-(3-(1H-imidazol-1-yl)propoxy)phenylamino)-5-fluoropyrimidin-4-ylamino)phenyl)acrylamide]	10 to 100 nM	–	10 to 100 nM	–
